Data as given in a melting point compilation (Tetko et al.; mined from patent text by program, amines drawn as free bases though some values may be those of a salt).

Row | Structure (SMILES) | melting point
1 | NC(=O)c1ccc(F)c2c1OCC=C2 | 152 to 154 °C
2 | CCCCCCOc1ccc(CCC(=O)OC2CCC3C4CCC5=CC(=O)CCC5C4CCC23C)cc1 (configuration not stated) | 52 to 53 °C
3 | CCCCCC1CCc2c(c(F)c(F)c3oc(C4CCC(CCC)CC4)cc23)O1 (configuration not stated) | 101 °C
4 | N#Cc1cc(Cl)cc2c1OC(C(F)(F)F)C(C(=O)O)=C2 (configuration not stated) | 238 to 240 °C
5 | Cc1ncc([N+](=O)[O-])n1CCN1C(=O)NC2(C1=O)C1CC3CC(C1)CC2C3 (configuration not stated) | 276 to 280 °C
6 | COc1ccccc1N1CCN(C(=O)[C@H](N)CC2CCCCC2)CC1 | 165 to 168 °C
7 | O=c1c2ccc(Cl)cc2oc2c(OCc3ccccc3)cccc12 | 154 °C
8 | CCN(CC)CCOc1ccc(C2c3cc(OC)ccc3-c3ccc4ccccc4c32)cc1 (configuration not stated) | 109 to 115 °C
9 | Cc1cccc(C)c1O[C@@H]1CCNC[C@H]1O (relative stereo) | 131 to 133 °C
10 | C#CCN(C)C(=O)NC | 68 to 69 °C
11 | CC(=O)Oc1ccc(C=CC(=O)C=Cc2ccc(OC(C)=O)cc2)cc1 | 167 to 168 °C
12 | CC1Cc2ccc([Si](C)(C)C)c(S(N)(=O)=O)c2S1(=O)=O (configuration not stated) | 171 to 172 °C
13 | CC(C#Cc1ccc(OCc2ccccc2)cc1)N(O)C(N)=O (configuration not stated) | 154 to 156 °C
14 | N#Cc1ccc(SCc2ccccc2)cc1 | 85 °C
15 | O=C(Nc1c(Cl)cncc1Cl)c1ccc(OC(F)F)c2oc3ccccc3c12 | 270 °C
16 | Cc1ccc(NC(=O)c2c(Cl)cccc2Cl)c2nccc(N3CCN(C)C3=O)c12 | 262 to 264 °C
17 | N#Cc1ccc(N2C(=O)NC3(CCCC3)C2=O)cc1C(F)(F)F | 184 to 185 °C
18 | Cc1ccc(Oc2ccc(-n3cnnn3)cc2)c(O)c1 | 129 to 132 °C
19 | CC(C)C(C(=O)O)c1ccc(Cl)cc1 (configuration not stated) | 88 to 89 °C
20 | C/C(=C\c1ccc(C(=O)O)cc1)c1ccc(O)c(C23CC4CC(CC(C4)C2)C3)c1 | 245 to 246 °C
21 | N#Cc1nn(-c2c(Cl)cc(C(F)(F)F)cc2Cl)c(N)c1-c1cc(Br)no1 | 227 °C
22 | CCN(CC)S(=O)(=O)Oc1ccc2c(c1)CCC1C2CCC2(C)C(O)C(O)CC12 (configuration not stated) | 121 to 124 °C
23 | O=c1cc(-c2nc3ccccc3[nH]2)oc2ccc(Cl)cc12 | 248 to 250 °C

Row | Structure (SMILES) | melting point
24 | COc1cc(C(=O)c2ncc3c(C(=O)N(C)C)cccn23)ccc1[N+](=O)[O-] | 176 °C
25 | O=C(O)c1ccccc1I(=O)=O | 226 to 234 °C
26 | CC(=O)N(C)c1cccc(-c2ccnc3c(C(=O)c4ccco4)cnn23)c1 | 210 to 212 °C
27 | Fc1ccc(Cn2c(CC3CCN(Cc4ccccc4)CC3)nc3cncnc32)cc1 | 136 °C
28 | CC(=O)n1c(Br)cc(-c2ccc(F)cc2)c1-c1ccc(S(C)(=O)=O)cc1 | 121 to 125 °C
29 | COc1ccc(N2CCN(c3cccnn3)CC2)cc1 | 133 °C
30 | O=C(O)c1cccc2c1CCc1cc(O)ccc1S2 | 210 to 211 °C
31 | c1cnc2c(c1)nnn2-c1ccncc1 | 196 to 198 °C
32 | CC(C)C[C@H](NC(=O)[C@H](Cc1c[nH]cn1)NC(=O)[C@H](Cc1cccc2ccccc12)NC(=O)OCc1ccccc1)[C@@H](O)CC(=O)OCc1ccccc1 | 102 to 109 °C
33 | N#Cc1ccc(C(=O)c2ccc(OC3OCC(O)C(O)C3O)cc2)cc1 (configuration not stated) | 189 °C
34 | COc1cc2[nH]c(=O)n(CCCS)c(=O)c2cc1OC | 236 °C
35 | Cc1cc(C)cc(P(=O)(c2cc(C)cc(C)c2)c2ccc3ccccc3c2-c2c(P(=O)(c3cc(C)cc(C)c3)c3cc(C)cc(C)c3)ccc3ccccc23)c1 | 287 to 290 °C
36 | C#CCn1c(C(F)(F)F)c(C(O)C#C)c2ccccc21 (racemic) | 98 °C
37 | CC1CC2C3CCC4=CC(=O)C=CC4(C)C3C(O)CC2(C)C1C(=O)CI (configuration not stated) | 153 °C
38 | CN1CCN(CC(=O)NN)CC1 | 87 to 89 °C
39 | COc1cc(CON=C(CCC(=O)O)c2ccccc2)cc(OC)c1OCc1nc(-c2ccccc2)oc1C | 89 to 90 °C
40 | CCN1C(=O)C(C)(C)C(=O)N(C)c2cc(CN(CCc3cccnc3)S(=O)(=O)c3ccccc3)ccc21 | 143 to 146 °C
41 | CCCCCCCCCCCCCCCCCC(=O)c1cc(C(=O)OCC)ccc1O | 74 °C
42 | N#Cc1cc(NC(=O)c2ccn(-c3ccc(F)cc3)c2)ccc1N1CCC(N2CCOCC2)CC1 | 182 to 183 °C
43 | N#Cc1nn(-c2c(Cl)cc(C(F)(F)F)cc2Cl)c(N)c1-c1ccsc1C(F)(F)F | 162 °C
44 | CC(CN1C(=O)c2ccccc2C1=O)OS(C)(=O)=O (configuration not stated) | 111 to 121 °C
45 | N#Cc1cnn(-c2cc(Cl)c(Cl)c(Cl)c2Cl)c1N | 168 to 169 °C

Second part, the compound after the results:

Row | melting point | Structure (SMILES)
46 | 108 °C | CC(C)(C)OC(=O)C[C@H](NC(=O)CNC(=O)c1csc(NC(=O)NCc2ccccc2)n1)C(=O)NCc1ccccn1
47 | 142 to 143 °C | C[C@@H]1OC(=O)[C@@H](NC(=O)OC(C)(C)C)COC[C@H](Cc2ccccc2)[C@H]1OCCC(=O)N(C)C
48 | 129 to 131 °C | c1ccc2oc(-c3ccncc3)nc2c1
49 | 136 to 137 °C | O=c1ccsc2c3ccccc3n(CCN3CCOCC3)c12
50 | 237 °C | CC1(C)CCc2c(N3CCSCC3)nc3sc4c(NCc5ccncc5)ncnc4c3c2C1
51 | 100 to 101 °C | COCc1cccc(C(=O)c2nc(OC)cc(OC)n2)c1N
52 | 132 to 133 °C | CCCc1c(C#N)c2ccc(C(=O)OC)cc2n1Cc1ccccc1Cl
53 | 58 °C | CC1(C(=O)Nc2ccc(OC(=O)Cc3cccs3)c(Cl)c2Cl)CCCCC1
54 | 128 to 131 °C | COc1ccccc1NC(=O)Cc1ccccc1
55 | 252 to 255 °C | O=C(CC(F)=C(F)F)Nc1cccc(C(=O)O)c1
56 | 134 to 138 °C | O=C(NCC12CC3CC(CC(C3)C1)C2)c1cc(-c2ccccc2C(=O)O)ncc1Cl
57 | 120 to 123 °C | COc1c(C(=O)Nc2ccc(OCC(C)(C)C)c(C#N)c2)cnn1-c1ccc(F)cc1
58 | 74 to 75 °C | C=CCNc1nc(CO)cs1
59 | 219 to 220 °C | CCCc1ccc2nc(C(F)(F)F)c(S(=O)(=O)N=CN(C)C)n2n1
60 | 138 to 140 °C | CCCc1ccc(N2CCC(O)CC2)nn1
61 | 129 to 130 °C | CCn1ncc2c1NC(=O)CC2C(F)(F)F (configuration not stated)
62 | 110 to 111 °C | O=Cc1c(Cl)cncc1Cl
63 | 85 to 90 °C | CCONC(=O)c1ccc(-c2cccc(CN(C)Cc3ccccc3)c2)cn1
64 | 142 °C | COC1=CC(C)(O)C(CCC(=O)O)C=C1 (configuration not stated)

Row | melting point | Structure (SMILES)
65 | 165 °C | CC(C)(C)OC(=O)Nc1ccc(-c2ccccc2)cc1NC(=O)CC(=O)c1sccc1Cl
66 | 160 to 161 °C | CC(C)(C)c1ccc(C#N)cc1NC(=O)NCc1ccccc1
67 | 209 to 210 °C | CCOc1ccc(NC(=O)c2cn(CC)c3c2C(=O)CCC3)cc1
68 | > 300 °C | CC(C)(C)OC(=O)Cn1c(C(=O)O)cc2cc(NC(=O)OC(C)(C)C)ccc21
69 | 204 to 206 °C | COC(=O)C(NS(=O)(=O)c1ccc(-c2ccc(NC(=O)c3oc4cccc(CO[Si](C)(C)C(C)(C)C)c4c3C)cc2)cc1)C(C)C (configuration not stated)
70 | 166 to 168 °C | NCC1CCN(CCc2ccc(O)cc2)CC1
71 | 65 to 70 °C | CCOC(=O)C(C#N)=CC=Cc1ccc(C(C)(C)C)cc1
72 | 203 to 204 °C | CCc1cnc2c(NC(=O)c3c(Cl)cccc3Cl)cccc2c1CC(C)(C)O
73 | 153 to 154 °C | S=C(NCc1cccnc1)NC(=Nc1cccc2ccccc12)c1ccccc1
74 | 110 to 112 °C | Cc1nc(-c2ccc(OCCCn3ccnc3)cc2)no1
75 | 158 to 160 °C | OCCN1CCn2c1nc1ccccc12
76 | 167 to 168 °C | O=C(O)C(=O)c1ccc(OCCOc2ccc3ccccc3c2)c(Cl)c1
77 | 60 °C | OC(=S)CCc1ccccc1
78 | 150 °C | CSc1ccc(CN(C)CCOc2ccc(NC(=O)c3cccc4c(=O)c5ccccc5[nH]c34)cc2)cc1
79 | 220 to 222 °C | CC1(c2ccc(O)cc2)Cc2cc(OCC(=O)O)c(Cl)c(Cl)c2C1=O (configuration not stated)
80 | 110 to 113 °C | CNS(=O)(=O)OCC(COc1ccccc1OC)OS(N)(=O)=O (configuration not stated)
81 | 115 °C | Cc1cc(C(=O)c2cccs2)cc(C)c1OCC(=O)O
82 | 175 to 180 °C | CCOC(=O)c1c(SCC(=O)COC(C)=O)nc2c(F)c(F)c(F)cc2c1O
83 | 155 to 156 °C | C#CCNC(=O)C(C)(COc1ccc(OCC)cc1)NS(=O)(=O)Cc1ccccc1 (configuration not stated)

Row | melting point | Structure (SMILES)
84 | 208 °C | COc1nnc(SCC2=C(C(=O)O)N3C(=O)C(NC(=O)Cc4csc(=O)s4)C3SC2)s1 (configuration not stated)
85 | 183 to 184 °C | Nc1nc2[nH]c(CCCCCCc3ccc(C(=O)N[C@@H](CCC(=O)O)C(=O)O)s3)cc2c(=O)[nH]1
86 | > 260 °C | COC(=O)c1c[nH]c(C=Cc2cnc3nc(NC(=O)C(C)(C)C)nc(O)c3c2)c1
87 | 207 to 210 °C | Cc1nc2c(cc1C(=O)NC(=N)N)CCCCC2O (configuration not stated)
88 | 130 to 131 °C | CCOC(=O)Cc1c(-c2ccccc2)c2cc(CO)c(CO)cc2oc1=O
89 | 61 to 67 °C | CSCC[C@H](NC(=O)[C@H](CC(C)C)NC(=O)OCc1ccccc1)C(=O)CSC
90 | 205 to 206 °C | CCOC(=O)Nc1cc(C(=O)OC)c(O)c2ncc(Cc3ccc(F)cc3)cc12
91 | 230 to 231 °C | ON=Cc1ccc(-c2ccc(O)cc2)c2sccc12
92 | 214 to 216 °C | O=C(O)Cc1cccc2c(-c3ccc(F)cc3)nccc12
93 | 109 to 111 °C | CC(=O)c1ccc2c(c1)c1ccccc1n2CCCCl
94 | 181 to 184 °C | COc1ccc(CNc2cc3c(Nc4ccc(F)c(Br)c4)ncnc3cn2)cc1
95 | 265 to 267 °C | CC(=O)Nc1ncc(Sc2ccc(O)cc2)s1
96 | 116 to 122 °C | S=C(NCCc1ccccc1Cl)Nc1ccccn1
97 | 190 to 191 °C | CCC(C(C)=CC(CNC(=O)c1ccc(N)nc1)=NO)[N+](=O)[O-] (configuration not stated)
98 | 119 to 120 °C | COC(=O)Cc1c(O)c(C)nn1C
99 | 97.5 to 98.5 °C | CCCCNC(=S)N1CCN(c2cnccn2)CC1
100 | 178 to 182 °C | CN1CCCCC1CCc1ccccc1NC(=O)c1ccc(O)cc1 (configuration not stated)
101 | 139 °C | Cc1cc(C#N)cc(C(=O)Nc2cccc(F)c2)n1
102 | 135 to 136 °C | CC(C)(C)Oc1ccc(C(N)=O)cc1
